Measured values from paper PMC8632988, “Inhibition of SYK and cSrc kinases can protect bone and cartilage in preclinical models of osteoarthritis and rheumatoid arthritis” (Scientific Reports, 2021).
Read-outs that look alike come from different tables or passages of the source.

Columns and labels:
Experiment in all cases: Kinase selectivity profile assay
Assay type in all cases: biochemical
PKD2/PRKD2 = target: T1, PKD2/PRKD2 (Homo sapiens, UniProt Q9BZL6); details: 500 nM; relative to DMSO; read-out: Residual enzymatic activity
T1 construct: purchased Reaction Biology Corporation
Outline: (§1)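 Radiometric kinase assay run by a standard protocol. Unbound phosphate was removed by washing filters in phosphoric acid, and product radioactivity gave percent remaining kinase activity versus DMSO vehicle reactions. Run in duplicate.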

CAMK1b = target: T2, CAMK1b (Homo sapiens, UniProt Q6P2M8); details: 500 nM; relative to DMSO; read-out: Residual enzymatic activity
T2 construct: purchased Reaction Biology Corporation
Outline: as §1

LATS2 = target: T3, LATS2 (Homo sapiens, UniProt Q9NRM7); details: 500 nM; relative to DMSO; read-out: Residual enzymatic activity
T3 construct: purchased Reaction Biology Corporation
Outline: as §1

PHKg1 = target: T4, PHKg1 (Homo sapiens, UniProt Q16816); details: 500 nM; relative to DMSO; read-out: Residual enzymatic activity
T4 construct: purchased Reaction Biology Corporation
T4 sequence (Q16816 whole entry): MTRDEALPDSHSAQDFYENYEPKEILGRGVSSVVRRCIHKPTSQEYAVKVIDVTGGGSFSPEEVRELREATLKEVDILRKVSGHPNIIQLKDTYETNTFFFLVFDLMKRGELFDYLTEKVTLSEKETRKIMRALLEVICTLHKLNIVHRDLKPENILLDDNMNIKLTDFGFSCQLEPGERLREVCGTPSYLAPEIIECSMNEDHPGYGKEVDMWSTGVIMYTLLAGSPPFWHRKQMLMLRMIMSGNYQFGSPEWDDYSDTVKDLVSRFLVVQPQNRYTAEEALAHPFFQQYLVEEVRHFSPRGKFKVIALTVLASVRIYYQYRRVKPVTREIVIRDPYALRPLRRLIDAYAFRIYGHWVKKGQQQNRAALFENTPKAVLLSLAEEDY
Outline: as §1

MEK1 = target: T5, MEK1 (Homo sapiens, UniProt Q02750); details: 500 nM, relative to DMSO; for remaining activity at 0.5 µM: read-out: Residual enzymatic activity
T5 construct: purchased Reaction Biology Corporation
T5 sequence (Q02750 whole entry): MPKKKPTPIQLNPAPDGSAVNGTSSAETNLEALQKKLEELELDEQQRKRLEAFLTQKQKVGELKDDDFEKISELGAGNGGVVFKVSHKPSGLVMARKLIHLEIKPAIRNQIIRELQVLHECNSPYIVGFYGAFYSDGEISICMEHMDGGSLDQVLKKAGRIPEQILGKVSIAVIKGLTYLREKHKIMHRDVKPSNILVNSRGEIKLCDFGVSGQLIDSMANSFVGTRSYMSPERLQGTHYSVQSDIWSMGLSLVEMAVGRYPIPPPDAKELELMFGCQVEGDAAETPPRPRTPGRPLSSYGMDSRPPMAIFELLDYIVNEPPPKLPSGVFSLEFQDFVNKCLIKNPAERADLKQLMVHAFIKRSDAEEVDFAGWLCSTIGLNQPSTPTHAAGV
Outline: as §1

TEC = target: T6, TEC (Homo sapiens, UniProt P42680); details: 500 nM; relative to DMSO; read-out: Residual enzymatic activity
T6 construct: purchased Reaction Biology Corporation
Outline: as §1

EPHB4 = target: T7, EPHB4 (Homo sapiens, UniProt P54760); details: 500 nM, relative to DMSO; for remaining activity at 0.5 µM: read-out: Residual enzymatic activity
T7 construct: purchased Reaction Biology Corporation
T7 sequence (P54760 16-987): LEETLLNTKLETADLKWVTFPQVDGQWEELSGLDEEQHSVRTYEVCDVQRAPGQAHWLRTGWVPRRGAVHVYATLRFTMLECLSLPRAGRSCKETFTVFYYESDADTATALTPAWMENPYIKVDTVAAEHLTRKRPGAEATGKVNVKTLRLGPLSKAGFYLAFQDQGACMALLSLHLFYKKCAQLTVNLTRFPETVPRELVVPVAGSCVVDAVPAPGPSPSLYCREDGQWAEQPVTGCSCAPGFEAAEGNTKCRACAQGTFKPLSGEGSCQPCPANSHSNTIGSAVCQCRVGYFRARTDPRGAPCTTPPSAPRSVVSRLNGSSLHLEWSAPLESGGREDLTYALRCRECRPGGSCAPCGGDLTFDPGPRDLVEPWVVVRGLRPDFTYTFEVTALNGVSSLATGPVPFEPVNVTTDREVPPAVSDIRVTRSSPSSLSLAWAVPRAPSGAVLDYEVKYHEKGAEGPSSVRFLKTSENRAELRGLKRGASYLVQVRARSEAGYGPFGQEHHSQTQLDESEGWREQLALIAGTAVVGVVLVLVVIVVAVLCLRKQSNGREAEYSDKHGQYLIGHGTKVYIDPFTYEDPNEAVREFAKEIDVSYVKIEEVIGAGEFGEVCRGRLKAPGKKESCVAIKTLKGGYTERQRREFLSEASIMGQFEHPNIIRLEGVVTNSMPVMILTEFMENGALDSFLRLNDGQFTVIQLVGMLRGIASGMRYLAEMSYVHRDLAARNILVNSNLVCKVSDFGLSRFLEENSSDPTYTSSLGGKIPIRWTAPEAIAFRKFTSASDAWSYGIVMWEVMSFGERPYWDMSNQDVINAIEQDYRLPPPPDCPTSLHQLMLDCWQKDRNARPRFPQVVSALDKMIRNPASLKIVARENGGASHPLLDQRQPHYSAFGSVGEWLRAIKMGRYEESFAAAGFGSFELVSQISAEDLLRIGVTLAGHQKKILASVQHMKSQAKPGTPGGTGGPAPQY
Outline: as §1

MST4 = target: T8, MST4 (Homo sapiens, UniProt Q9P289); details: 500 nM; relative to DMSO; read-out: Residual enzymatic activity
T8 construct: purchased Reaction Biology Corporation
Outline: as §1

COT1/MAP3K8 = target: T9, COT1/MAP3K8 (Homo sapiens, UniProt P41279); details: 500 nM; relative to DMSO; read-out: Residual enzymatic activity
T9 construct: purchased Reaction Biology Corporation
Outline: as §1

CDK4/cyclin D1 = target: T10, CDK4/cyclin D1 (Homo sapiens, UniProt P11802); details: read-out: Residual enzymatic activity
T10 construct: purchased Reaction Biology Corporation
T10 sequence (P11802 whole entry): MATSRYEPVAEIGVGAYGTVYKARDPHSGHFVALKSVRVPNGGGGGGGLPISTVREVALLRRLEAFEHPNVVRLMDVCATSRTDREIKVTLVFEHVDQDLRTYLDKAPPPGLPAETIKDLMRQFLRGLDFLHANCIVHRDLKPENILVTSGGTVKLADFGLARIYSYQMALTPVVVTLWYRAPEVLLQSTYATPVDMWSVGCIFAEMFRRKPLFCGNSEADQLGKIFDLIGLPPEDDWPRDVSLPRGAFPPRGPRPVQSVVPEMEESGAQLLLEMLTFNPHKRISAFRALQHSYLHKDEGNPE
T10 sequence (P24385 whole entry partner): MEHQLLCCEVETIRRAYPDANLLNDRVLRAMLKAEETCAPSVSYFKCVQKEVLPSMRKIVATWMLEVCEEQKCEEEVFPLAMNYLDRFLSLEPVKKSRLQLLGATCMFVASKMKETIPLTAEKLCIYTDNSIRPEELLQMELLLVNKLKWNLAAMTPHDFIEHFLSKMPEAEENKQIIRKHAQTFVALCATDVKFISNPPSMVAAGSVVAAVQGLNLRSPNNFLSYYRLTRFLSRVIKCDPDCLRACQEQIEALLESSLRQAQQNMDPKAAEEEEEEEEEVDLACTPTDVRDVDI
Outline: as §1

RAF1 = target: T11, RAF1 (Homo sapiens, UniProt P04049); details: 500 nM; relative to DMSO; read-out: Residual enzymatic activity
T11 construct: purchased Reaction Biology Corporation
Outline: as §1

SGK1 = target: T12, SGK1 (Homo sapiens, UniProt O00141); details: 500 nM; relative to DMSO; read-out: Residual enzymatic activity
T12 construct: purchased Reaction Biology Corporation
T12 sequence (O00141 whole entry): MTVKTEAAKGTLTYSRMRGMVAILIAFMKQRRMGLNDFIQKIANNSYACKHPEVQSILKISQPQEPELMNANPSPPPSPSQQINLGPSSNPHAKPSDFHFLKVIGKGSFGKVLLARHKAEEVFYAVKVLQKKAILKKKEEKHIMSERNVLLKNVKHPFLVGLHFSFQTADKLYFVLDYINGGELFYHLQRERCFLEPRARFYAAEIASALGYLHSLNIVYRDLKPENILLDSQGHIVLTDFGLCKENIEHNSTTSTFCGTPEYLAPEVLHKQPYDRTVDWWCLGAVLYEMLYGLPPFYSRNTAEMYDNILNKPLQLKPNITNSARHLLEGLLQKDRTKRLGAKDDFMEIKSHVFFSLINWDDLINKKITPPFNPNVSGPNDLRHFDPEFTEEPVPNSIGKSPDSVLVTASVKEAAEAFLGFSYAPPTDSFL
Outline: as §1

PLK4/SAK = target: T13, PLK4/SAK (Homo sapiens, UniProt O00444); details: 500 nM; relative to DMSO; read-out: Residual enzymatic activity
T13 construct: purchased Reaction Biology Corporation
Outline: as §1

c-MER = target: T14, c-MER (Homo sapiens, UniProt Q12866); details: 500 nM; relative to DMSO; read-out: Residual enzymatic activity
T14 construct: purchased Reaction Biology Corporation
Outline: as §1

CLK2 = target: T15, CLK2 (Homo sapiens, UniProt P49760); details: 500 nM; relative to DMSO; read-out: Residual enzymatic activity
T15 construct: purchased Reaction Biology Corporation
Outline: as §1

RON/MST1R = target: T16, RON/MST1R (Homo sapiens, UniProt Q04912); details: 500 nM; relative to DMSO; read-out: Residual enzymatic activity
T16 construct: purchased Reaction Biology Corporation
Outline: as §1

MNK2 = target: T17, MNK2 (Homo sapiens, UniProt Q9HBH9); details: 500 nM; relative to DMSO; read-out: Residual enzymatic activity
T17 construct: purchased Reaction Biology Corporation
Outline: as §1

PKCeta = target: T18, PKCeta (Homo sapiens, UniProt P24723); details: 500 nM; relative to DMSO; read-out: Residual enzymatic activity
T18 construct: purchased Reaction Biology Corporation
T18 sequence (P24723 whole entry): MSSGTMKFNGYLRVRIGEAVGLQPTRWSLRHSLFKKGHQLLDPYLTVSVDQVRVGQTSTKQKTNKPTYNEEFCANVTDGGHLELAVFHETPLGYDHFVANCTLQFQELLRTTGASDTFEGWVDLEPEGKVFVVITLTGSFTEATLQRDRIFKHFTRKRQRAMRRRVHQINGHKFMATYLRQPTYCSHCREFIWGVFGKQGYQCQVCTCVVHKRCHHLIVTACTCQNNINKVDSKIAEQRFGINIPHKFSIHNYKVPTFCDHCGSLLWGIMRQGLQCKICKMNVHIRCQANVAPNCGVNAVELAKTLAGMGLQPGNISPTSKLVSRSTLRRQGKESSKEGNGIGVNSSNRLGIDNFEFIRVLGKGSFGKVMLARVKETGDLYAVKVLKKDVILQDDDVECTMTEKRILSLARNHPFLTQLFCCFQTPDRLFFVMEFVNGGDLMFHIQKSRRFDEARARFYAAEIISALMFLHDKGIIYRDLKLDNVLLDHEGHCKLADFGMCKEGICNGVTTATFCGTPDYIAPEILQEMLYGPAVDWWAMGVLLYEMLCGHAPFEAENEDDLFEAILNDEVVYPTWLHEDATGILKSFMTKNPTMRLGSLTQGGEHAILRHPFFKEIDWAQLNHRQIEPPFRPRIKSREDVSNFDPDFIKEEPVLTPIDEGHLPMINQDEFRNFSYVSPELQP
Outline: as §1

ULK2 = target: T19, ULK2 (Homo sapiens, UniProt Q8IYT8); details: 500 nM; relative to DMSO; read-out: Residual enzymatic activity
T19 construct: purchased Reaction Biology Corporation
T19 sequence (Q8IYT8 whole entry): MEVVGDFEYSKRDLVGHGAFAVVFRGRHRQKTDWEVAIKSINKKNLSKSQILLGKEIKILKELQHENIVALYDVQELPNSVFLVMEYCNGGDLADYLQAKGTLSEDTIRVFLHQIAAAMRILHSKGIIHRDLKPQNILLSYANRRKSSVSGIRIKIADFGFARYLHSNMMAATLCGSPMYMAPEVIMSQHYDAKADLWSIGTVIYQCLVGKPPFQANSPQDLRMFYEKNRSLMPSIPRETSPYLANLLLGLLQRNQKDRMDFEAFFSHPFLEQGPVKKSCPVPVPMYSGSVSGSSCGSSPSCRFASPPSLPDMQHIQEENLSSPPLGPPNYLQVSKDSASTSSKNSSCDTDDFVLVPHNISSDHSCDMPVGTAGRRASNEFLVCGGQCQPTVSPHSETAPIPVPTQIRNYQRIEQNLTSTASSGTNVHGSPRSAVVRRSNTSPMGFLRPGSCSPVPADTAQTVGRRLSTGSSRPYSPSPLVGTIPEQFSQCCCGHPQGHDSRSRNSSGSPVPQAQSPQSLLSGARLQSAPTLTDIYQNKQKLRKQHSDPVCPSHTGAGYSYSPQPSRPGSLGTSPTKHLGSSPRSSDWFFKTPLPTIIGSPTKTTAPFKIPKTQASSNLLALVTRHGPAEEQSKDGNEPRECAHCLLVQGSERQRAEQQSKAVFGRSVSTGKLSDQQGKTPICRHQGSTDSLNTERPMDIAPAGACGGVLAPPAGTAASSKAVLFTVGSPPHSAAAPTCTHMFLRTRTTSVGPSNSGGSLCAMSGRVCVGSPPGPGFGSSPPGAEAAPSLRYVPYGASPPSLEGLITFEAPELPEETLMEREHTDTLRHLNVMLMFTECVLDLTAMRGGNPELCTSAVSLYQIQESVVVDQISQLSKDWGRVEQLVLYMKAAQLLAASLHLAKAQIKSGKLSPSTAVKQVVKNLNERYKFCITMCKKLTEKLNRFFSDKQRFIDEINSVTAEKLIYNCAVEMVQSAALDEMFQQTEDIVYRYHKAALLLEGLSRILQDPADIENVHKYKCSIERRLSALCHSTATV
Outline: as §1

MKK4 = target: T20, MKK4 (Homo sapiens, UniProt P45985); details: 500 nM; relative to DMSO; read-out: Residual enzymatic activity
T20 construct: purchased Reaction Biology Corporation
Outline: as §1

PKCepsilon = target: T21, PKCepsilon (Homo sapiens, UniProt Q02156); details: 500 nM; relative to DMSO; read-out: Residual enzymatic activity
T21 construct: purchased Reaction Biology Corporation
T21 sequence (Q02156 whole entry): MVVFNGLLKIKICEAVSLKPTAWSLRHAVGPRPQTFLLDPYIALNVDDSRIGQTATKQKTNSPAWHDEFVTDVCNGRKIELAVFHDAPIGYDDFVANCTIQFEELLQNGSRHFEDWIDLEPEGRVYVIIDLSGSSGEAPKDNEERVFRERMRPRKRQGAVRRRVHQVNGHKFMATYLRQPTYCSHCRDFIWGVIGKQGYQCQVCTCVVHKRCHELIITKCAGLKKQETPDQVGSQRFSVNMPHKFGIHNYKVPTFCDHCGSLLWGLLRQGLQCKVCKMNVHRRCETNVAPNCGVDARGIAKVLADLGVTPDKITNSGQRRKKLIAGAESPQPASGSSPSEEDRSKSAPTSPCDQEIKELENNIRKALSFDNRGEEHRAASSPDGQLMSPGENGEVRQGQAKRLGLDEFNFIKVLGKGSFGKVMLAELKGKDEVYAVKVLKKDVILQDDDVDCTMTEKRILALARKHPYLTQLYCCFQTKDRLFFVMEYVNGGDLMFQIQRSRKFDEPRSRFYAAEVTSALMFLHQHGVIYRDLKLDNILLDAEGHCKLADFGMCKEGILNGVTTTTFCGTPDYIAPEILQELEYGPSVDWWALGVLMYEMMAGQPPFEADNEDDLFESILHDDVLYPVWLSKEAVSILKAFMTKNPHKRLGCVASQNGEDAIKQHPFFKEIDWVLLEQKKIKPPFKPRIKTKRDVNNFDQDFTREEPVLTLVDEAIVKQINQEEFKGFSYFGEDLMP
Outline: as §1

DYRK3 = target: T22, DYRK3 (Homo sapiens, UniProt O43781); details: 500 nM; relative to DMSO; read-out: Residual enzymatic activity
T22 construct: purchased Reaction Biology Corporation
T22 sequence (O43781 whole entry): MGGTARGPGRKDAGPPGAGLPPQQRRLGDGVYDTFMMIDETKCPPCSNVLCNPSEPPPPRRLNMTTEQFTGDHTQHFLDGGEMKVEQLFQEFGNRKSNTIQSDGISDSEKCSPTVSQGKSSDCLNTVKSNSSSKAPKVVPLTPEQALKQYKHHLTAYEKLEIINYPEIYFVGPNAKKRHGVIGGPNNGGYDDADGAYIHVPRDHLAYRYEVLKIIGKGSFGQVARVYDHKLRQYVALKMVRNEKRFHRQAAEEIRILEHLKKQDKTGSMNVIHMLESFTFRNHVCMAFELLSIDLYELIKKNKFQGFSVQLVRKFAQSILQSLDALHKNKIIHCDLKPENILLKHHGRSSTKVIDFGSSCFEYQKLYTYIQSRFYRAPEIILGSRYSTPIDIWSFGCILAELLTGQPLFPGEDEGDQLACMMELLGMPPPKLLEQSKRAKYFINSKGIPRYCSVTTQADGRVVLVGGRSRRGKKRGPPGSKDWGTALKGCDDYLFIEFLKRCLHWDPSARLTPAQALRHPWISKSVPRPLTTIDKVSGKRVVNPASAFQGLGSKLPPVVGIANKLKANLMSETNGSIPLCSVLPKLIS
Outline: as §1

Haspin = target: T23, Haspin (Homo sapiens, UniProt Q8TF76); details: 500 nM; relative to DMSO; read-out: Residual enzymatic activity
T23 construct: purchased Reaction Biology Corporation
Outline: as §1

PKCmu/PRKD1 = target: T24, PKCmu/PRKD1 (Homo sapiens, UniProt Q15139); details: 500 nM; relative to DMSO; read-out: Residual enzymatic activity
T24 construct: purchased Reaction Biology Corporation
Outline: as §1

NEK1 = target: T25, NEK1 (Homo sapiens, UniProt Q96PY6); details: 500 nM; relative to DMSO; read-out: Residual enzymatic activity
T25 construct: purchased Reaction Biology Corporation
Outline: as §1

CAMKK2 = target: T26, CAMKK2 (Homo sapiens, UniProt Q96RR4); details: 500 nM; relative to DMSO; read-out: Residual enzymatic activity
T26 construct: purchased Reaction Biology Corporation
Outline: as §1

PLK3 = target: T27, PLK3 (Homo sapiens, UniProt Q9H4B4); details: 500 nM; relative to DMSO; read-out: Residual enzymatic activity
T27 construct: purchased Reaction Biology Corporation
Outline: as §1

STK39/STLK3 = target: T28, STK39/STLK3 (Homo sapiens, UniProt Q9UEW8); details: 500 nM; relative to DMSO; read-out: Residual enzymatic activity
T28 construct: purchased Reaction Biology Corporation
Outline: as §1

SMILES | remaining activity at 0.5 µM (PKD2/PRKD2) | remaining activity at 0.5 µM (CAMK1b) | remaining activity at 0.5 µM (LATS2) | remaining activity at 0.5 µM (PHKg1) | remaining activity at 0.5 µM (MEK1) | remaining activity at 0.5 µM (TEC) | remaining activity at 0.5 µM (EPHB4) | remaining activity at 0.5 µM (MST4) | remaining activity at 0.5 µM (COT1/MAP3K8) | remaining activity at 0.5 µM (RAF1) | remaining activity at 0.5 µM (SGK1) | remaining activity at 0.5 µM (PLK4/SAK) | remaining activity at 0.5 µM (c-MER) | remaining activity at 0.5 µM (CLK2) | remaining activity at 0.5 µM (RON/MST1R) | remaining activity at 0.5 µM (MNK2) | remaining activity at 0.5 µM (PKCeta) | remaining activity at 0.5 µM (ULK2) | remaining activity at 0.5 µM (MKK4) | remaining activity at 0.5 µM (PKCepsilon) | further results
COc1cc(Nc2ncnc(Nc3cc4c(cn3)NC(=O)C(C)(C)O4)n2)cc(OC)c1OC [MT-SYK-03] | 102% | 106% | 85.3% | 97.1% | 107% | 71% | > 54% | 112% | 90.4% | 91.5% | 108% | 77.8% | 109% | 94.5% | 98.4% | 78.6% | 109% | 111% | 99.8% | 106% | Residual enzymatic activity (MEK1): did not inhibit any; Residual enzymatic activity (EPHB4): 64.6%; remaining activity at 0.5 µM (CDK4/cyclin D1; 500 nM, relative to DMSO): 109%; remaining activity at 0.5 µM (DYRK3): 91.6%; remaining activity at 0.5 µM (Haspin): 101%; remaining activity at 0.5 µM (PKCmu/PRKD1): 98.5%; remaining activity at 0.5 µM (NEK1): 52.7%; remaining activity at 0.5 µM (CAMKK2): 97.2%; remaining activity at 0.5 µM (PLK3): 97.6%; remaining activity at 0.5 µM (STK39/STLK3): 107%
COc1cc(Nc2ncc(F)c(Nc3ccc4c(n3)NC(=O)C(C)(C)O4)n2)cc(OC)c1OC [R406, reference compound] | 75.2% | 108% | 51.2% | 61.5% | 87.2% | 39.4% | 51.2% | 94.8% | 100% | 73.3% | 109% | 17.2% | 73.9% | 81.6% | 47.9% | 37.9% | 96.6% | 37.9% | 102% | 95% | remaining activity at 0.5 µM (CDK4/cyclin D1): 104%; remaining activity at 0.5 µM (DYRK3): 90.6%; remaining activity at 0.5 µM (Haspin): 91.5%; remaining activity at 0.5 µM (PKCmu/PRKD1): 82.1%; remaining activity at 0.5 µM (NEK1): 7%; remaining activity at 0.5 µM (CAMKK2): 88.8%; remaining activity at 0.5 µM (PLK3): 53.1%; remaining activity at 0.5 µM (STK39/STLK3): 107%
